System: SEM cells
Test: cell viability relative to DMSO control; higher = less cytotoxic
Settings: 48 h
How it was run: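 Viability values are per-plate percentages of DMSO wells, with background from cell-free wells. Library compounds in DMSO were pin-dosed, in an 11-point threefold series from 47 μM to 0.79 nM, onto NOMO1 or SEM (500 cells/well) or P12-Ichikawa (1000 cells/well) leukemia cells in 1536-well plates (5 μl). Those cells had been adapted for at least four passages in each medium, and CellTiter-Glo One luminescence was read after 48 h at 37°C.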

[1] = HPLM + 10% dialyzed FBS, 0.000781 µM
[2] = HPLM + 10% dialyzed FBS, 0.00234 µM
[3] = HPLM + 10% dialyzed FBS, 0.00702 µM
[4] = HPLM + 10% dialyzed FBS, 0.0211 µM
[5] = HPLM + 10% dialyzed FBS, 0.0632 µM
[6] = HPLM + 10% dialyzed FBS, 0.19 µM
[7] = HPLM + 10% dialyzed FBS, 0.569 µM
[8] = HPLM + 10% dialyzed FBS, 1.71 µM
[9] = HPLM + 10% dialyzed FBS, 5.12 µM
[10] = HPLM + 10% dialyzed FBS, 15.4 µM
[11] = HPLM + 10% dialyzed FBS, 46.1 µM
[12] = RPMI 5 mM glucose + 10% FBS, 0.000781 µM
[13] = RPMI 5 mM glucose + 10% FBS, 0.00234 µM
[14] = RPMI 5 mM glucose + 10% FBS, 0.00702 µM
[15] = RPMI 5 mM glucose + 10% FBS, 0.0211 µM
[16] = RPMI 5 mM glucose + 10% FBS, 0.0632 µM
[17] = RPMI 5 mM glucose + 10% FBS, 0.19 µM
[18] = RPMI 5 mM glucose + 10% FBS, 0.569 µM
[19] = RPMI 5 mM glucose + 10% FBS, 1.71 µM
[20] = RPMI 5 mM glucose + 10% FBS, 5.12 µM
[21] = RPMI 5 mM glucose + 10% FBS, 15.4 µM
[22] = RPMI 5 mM glucose + 10% FBS, 46.1 µM
[23] = RPMI 5 mM glucose + 10% dialyzed FBS, 0.000781 µM
[24] = RPMI 5 mM glucose + 10% dialyzed FBS, 0.00234 µM
[25] = RPMI 5 mM glucose + 10% dialyzed FBS, 0.00702 µM
[26] = RPMI 5 mM glucose + 10% dialyzed FBS, 0.0211 µM
[27] = RPMI 5 mM glucose + 10% dialyzed FBS, 0.0632 µM
[28] = RPMI 5 mM glucose + 10% dialyzed FBS, 0.19 µM
[29] = RPMI 5 mM glucose + 10% dialyzed FBS, 0.569 µM
[30] = RPMI 5 mM glucose + 10% dialyzed FBS, 1.71 µM
[31] = RPMI 5 mM glucose + 10% dialyzed FBS, 5.12 µM
[32] = RPMI 5 mM glucose + 10% dialyzed FBS, 15.4 µM
[33] = RPMI 5 mM glucose + 10% dialyzed FBS, 46.1 µM

| SMILES | cell viability [1] | cell viability [2] | cell viability [3] | cell viability [4] | cell viability [5] | cell viability [6] | cell viability [7] | cell viability [8] | cell viability [9] | cell viability [10] | cell viability [11] | cell viability [12] | cell viability [13] | cell viability [14] | cell viability [15] | cell viability [16] | cell viability [17] | cell viability [18] | cell viability [19] | cell viability [20] | cell viability [21] | cell viability [22] | cell viability [23] | cell viability [24] | cell viability [25] | cell viability [26] | cell viability [27] | cell viability [28] | cell viability [29] | cell viability [30] | cell viability [31] | cell viability [32] | cell viability [33] |
| --- | --- | --- | --- | --- | --- | --- | --- | --- | --- | --- | --- | --- | --- | --- | --- | --- | --- | --- | --- | --- | --- | --- | --- | --- | --- | --- | --- | --- | --- | --- | --- | --- | --- |
| CC(C)(C)OC(=O)N[C@H]1CCCCC/C=C\[C@@H]2C[C@@]2(C(=O)N[S+](=O)([O-])C2CC2)NC(=O)[C@@H]2C[C@@H](OC(=O)N3Cc4cccc(F)c4C3)CN2C1=O | 71.4% | 83.9% | 83.5% | 75.7% | 97.3% | 89% | 92.1% | 79.8% | 84% | 86.6% | 80.2% | 96.1% | 99.7% | 84.5% | 73.4% | 102% | 88.9% | 101% | 103% | 93.4% | 90.2% | 85.4% | 85.2% | 91.9% | 93.4% | 105% | 94.9% | 98.5% | 121% | 115% | 93% | 91.6% | 81.3% |
| C[C@]12CC[C@@H]3c4ccc(O)cc4CC[C@H]3[C@@H]1[C@@H](O)[C@@H](O)[C@@H]2O | 104% | 119% | 112% | 115% | 116% | 127% | 123% | 86% | 125% | 99.9% | 84.1% | 87.8% | 125% | 110% | 82% | 102% | 88.5% | 94.2% | 80% | 99% | 99.4% | 38.8% | 101% | 110% | 120% | 118% | 121% | 132% | 126% | 90% | 129% | 103% | 64.5% |
| CC(C)C1NC(=O)C(NC(=O)C2=C3\N=C\4/C(=C(C)\C(=O)\C(=C4C(=O)NC5C(C)OC(=O)C(C(C)C)N(C)C(=O)CN(C)C(=O)C6CCCN6C(=O)C(NC5=O)C(C)C)N)OC3=C(C)C=C2)C(C)OC(=O)C(C(C)C)N(C)C(=O)CN(C)C(=O)C7CCCN7C1=O (centres undefined) | 8.02% | 8.45% | 8.63% | 7.17% | 5.33% | 4.97% | 5.75% | 5.02% | 3.36% | 1.81% | 1.57% | 6.55% | 8.45% | 7.11% | 5.21% | 4.11% | 3.76% | 4.54% | 3.75% | 2.28% | 1.15% | 1.09% | 6.94% | 7.82% | 7.08% | 7.7% | 5.11% | 4.36% | 5.1% | 3.89% | 1.96% | 2.2% | 1.26% |
| O=C(O)Cn1nnc(-c2cc(N3CCC(Oc4cc(F)ccc4Br)CC3)no2)n1 | 73.8% | 82.5% | 92.6% | 75.8% | 95.6% | 101% | 104% | 102% | 86.3% | 97.2% | 62.2% | 102% | 75.3% | 101% | 94.2% | 98% | 100% | 96.9% | 120% | 90.9% | 103% | 85.4% | 80.1% | 88.9% | 95.6% | 106% | 93.6% | 102% | 116% | 106% | 94% | 102% | 103% |
| CN[C@@H](C)[C@H]1[C@H](O)C[C@@]2(C)[C@@H]3CC[C@H]4C(C)(C)[C@@H](NC)CC[C@@]45C[C@@]35CC[C@]12C | 73.4% | 83.6% | 53.9% | 85.5% | 90.1% | 95.8% | 83.2% | 98.4% | 42.5% | 93.4% | 66.3% | 81.8% | 83.2% | 56% | 95.2% | 82.7% | 83.3% | 109% | 68.9% | 40% | 100% | 103% | 72.7% | 75.4% | 66.4% | 83.4% | 87.3% | 99.2% | 109% | 93.9% | 44.3% | 99.4% | 89.8% |
| O=c1[nH]c(=O)n([C@H]2C[C@H](O)[C@@H](CO)O2)cc1/C=C/Br | 92.7% | 116% | 101% | 120% | 119% | 119% | 114% | 100% | 86.4% | 78.7% | 60.2% | 101% | 121% | 114% | 109% | 123% | 105% | 119% | 117% | 115% | 119% | 120% | 90.8% | 117% | 103% | 98.6% | 106% | 112% | 116% | 116% | 111% | 102% | 82.2% |
| CC(C)c1noc(N2CCC(COc3ccc(-c4ccc([S+](C)(=O)[O-])cc4)nc3)CC2)n1 | 131% | 81.5% | 115% | 122% | 132% | 32.7% | 128% | 84.8% | 16.3% | 122% | 109% | 111% | 73.4% | 140% | 126% | 134% | 23.1% | 120% | 53.1% | 12.9% | 114% | 112% | 111% | 56% | 136% | 138% | 115% | 28.8% | 111% | 60.4% | 10.3% | 100% | 104% |
| CNC(=O)c1ccc(N2C(=S)N(c3cnc(C#N)c(C(F)(F)F)c3)C(=O)C23CCC3)cc1F | 92.3% | 88.8% | 80.1% | 103% | 76.8% | 95.6% | 105% | 98% | 107% | 101% | 95.2% | 83.9% | 94.1% | 90.7% | 93.6% | 97.1% | 92.7% | 94.8% | 101% | 98.3% | 98.6% | 93.9% | 82.6% | 95.3% | 85.3% | 91.5% | 114% | 100% | 97.8% | 98.2% | 96.8% | 93.3% | 108% |
| C[N]1C=C(C=N1)C2=C3\C=N/NC(=O)C4=C3C(=CC(=C4)NC(=O)[C@H](N)C5CCCCC5)[NH]2 | 87.7% | 56.3% | 85.5% | 101% | 79% | 90.8% | 68% | 58.3% | 36.5% | 20.7% | 11.6% | 101% | 67.1% | 94.4% | 99.2% | 92.9% | 103% | 81.3% | 50.8% | 34.5% | 22% | 8.73% | 79.8% | 50.8% | 95.1% | 86.2% | 89.5% | 90% | 59.3% | 42.2% | 25% | 15.4% | 7.21% |
| CC[C@H](/C=C/[C@@H](C)[C@H]1CC[C@H]2[C@@H]3CC=C4C[C@@H](O)CC[C@]4(C)[C@H]3CC[C@]12C)C(C)C | 100% | 77.3% | 94.8% | 94.8% | 86.4% | 108% | 81.7% | 100% | 95.3% | 79.1% | 89.3% | 102% | 83.8% | 103% | 95.2% | 101% | 96.8% | 93.3% | 104% | 105% | 87.4% | 84.2% | 98% | 92.7% | 93.3% | 104% | 111% | 90.6% | 93.5% | 108% | 94.1% | 87.6% | 93.5% |
| O=C1c2ccccc2-[n+]2ccc3c([nH]c4ccccc43)c21 | 91% | 89.3% | 102% | 77.2% | 70.7% | 73.6% | 68% | 55.8% | 19.6% | 3.74% | 2.58% | 116% | 109% | 102% | 92.1% | 78.2% | 92.7% | 85.7% | 59.6% | 32.3% | 3.62% | 2.81% | 92.7% | 98% | 91.9% | 80.2% | 87.4% | 84.9% | 65.4% | 58.1% | 32.6% | 3.56% | 2.5% |
| O=C1NC(=O)/C(=C/c2ccc3nccc(-c4ccncc4)c3c2)S1 | 108% | 104% | 105% | 107% | 95.5% | 74.5% | 43.9% | 49.5% | 19.7% | 13.7% | 1.01% | 115% | 116% | 134% | 116% | 108% | 86.1% | 55.4% | 48.2% | 23.9% | 7.87% | 1.09% | 105% | 103% | 101% | 111% | 96.7% | 67.8% | 46.9% | 43.4% | 24.3% | 12.8% | 0.853% |
| CC(C)(O)CC[C@@H](O)[C@](C)(O)[C@H]1CC[C@@]2(O)C/3=C/C(=O)[C@@H]4C[C@@H](O)[C@@H](O)C[C@]4(C)[C@H]3CC[C@]12C | 115% | 107% | 112% | 97.8% | 97.5% | 110% | 99.7% | 103% | 93.5% | 89.7% | 94.7% | 96.3% | 93.8% | 98.3% | 93.4% | 102% | 98.8% | 85.2% | 97.7% | 96.4% | 87% | 79.8% | 104% | 106% | 103% | 80.2% | 81.7% | 92.8% | 77.3% | 104% | 83.4% | 94.2% | 74.6% |

— the supplement of paper PMC11451515
